Reference: patent US20220331303A1, “USE OF AN OREXIN 2 RECEPTOR AGONIST FOR THE TREATMENT OF EXCESSIVE SLEEPINESS” (Takeda Pharmaceutical Company Limited, priority 2019, published 2022)
Where two headings read alike, the source gives them in different places.

Assays:
[1] = Multiple-dose plasma PK of IV Compound A in patients with NT2; assay type: in vivo, human; conditions: human, plasma, intravenous; for clearance: read-out: CL Mean (converted)
Description: (§1) The purpose of the study was to evaluate the safety, tolerability, pharmacokinetics and pharmacodynamics of Compound A after multiple days of IV administration in patients with NT2. NT2 patients were evaluated in Cohort C1 and C2 (Table 30). Compound A or placebo were administered via IV infusion over 9 hours once daily for 7 days. A total of 14 patients with NT2 were treated with Compound A or placebo (5, 4, and 5 subjects in the placebo, Compound A 44 mg, and Compound A 112 mg groups, respectively). In this part, potential efficacy of Compound A was evaluated with MWT, ESS, KSS, night-time PSG (NPSG), and PGI-C as an exploratory PD assessment.
Blood samples used for PK analysis of Compound A was collected according to Table 31. See also FIG. 10 for whole schedules of study procedures.

[2] = test system: patients with NT2; test: KSS in patients with NT2; assay type: in vivo, human; conditions: 9 hours postdose
Description: as §1

In the case of `COC(=O)N1CCC[C@H](NS(C)(=O)=O)[C@@H]1CO[C@H]1CC[C@@H](c2ccccc2)CC1` [Compound A, methyl (2R,3S)-3-((methylsulfonyl)amino)-2-(((cis-4-phenylcyclohexyl)oxy)methyl)piperidine-1-carboxylate], the AUC(0-inf) ([1]; 44 mg, Cmpd A 44 mg, Day 1, read-out: AUCinf Geo mean) is reported as 651 ng·h/mL, the AUC(0-inf) ([1]; 44 mg, Cmpd A 44 mg, Day 1, read-out: AUCinf Mean) is reported as 655 ng·h/mL and the AUC(0-t) ([1]; 44 mg, Cmpd A 44 mg, Day 1, read-out: AUClast Geo mean) is reported as 648 ng·h/mL. The AUC(0-t) ([1]; 44 mg, Cmpd A 44 mg, Day 1, read-out: AUClast Mean) was 652 ng·h/mL, the AUC ([1]; 44 mg, Cmpd A 44 mg, Day 1, read-out: AUCtau Geo mean) was 648 ng·h/mL and the AUC ([1]; 44 mg, Cmpd A 44 mg, Day 1, read-out: AUCtau Mean) was 652 ng·h/mL. For the same compound, the clearance ([1]; 44 mg, Cmpd A 44 mg, Day 1) was 1130 mL/min, the concentration at 9 h ([1]; 44 mg, Cmpd A 44 mg, Day 1, read-out: Ceoi Geo mean) was 68.7 ng/mL and the concentration at 9 h ([1]; 44 mg, Cmpd A 44 mg, Day 1, read-out: Ceoi Mean) was 69 ng/mL. For the same compound, the Cmax ([1]; 44 mg, Cmpd A 44 mg, Day 1, read-out: Cmax Geo mean) was 73.9 ng/mL, the Cmax ([1]; 44 mg, Cmpd A 44 mg, Day 1, read-out: Cmax Mean) was 74.1 ng/mL and the Vd ([1]; 44 mg, Cmpd A 44 mg, Day 1, read-out: Vss Mean) was 122 L. For the same compound, the Vd ([1]; 44 mg, Cmpd A 44 mg, Day 1, read-out: Vz Mean) was 288 L, the Tmax ([1]; 44 mg, Cmpd A 44 mg, Day 7) was 3.91 h and the AUC(0-t) ([1]; 44 mg, Cmpd A 44 mg, Day 7, read-out: AUClast Geo Mean) was 657 ng·h/mL. The AUC(0-t) ([1]; 44 mg, Cmpd A 44 mg, Day 7, read-out: AUClast Mean) was 660 ng·h/mL, the clearance ([1]; 44 mg, Cmpd A 44 mg, Day 7) was 1120 mL/min and the Cmax ([1]; 44 mg, Cmpd A 44 mg, Day 7, read-out: Cmax Mean) was 76.7 ng/mL. It also gave a Vd ([1]; 44 mg, Cmpd A 44 mg, Day 7, read-out: Vss Mean) of 114 L, a Vd ([1]; 44 mg, Cmpd A 44 mg, Day 7, read-out: Vz Mean) of 258 L and a Cmax ([1]; 112 mg, Cmax Geo Mean, Cmpd A 112 mg, Day 7) of 172 ng/mL. The concentration at 1 h ([1]; 112 mg, Cmpd A 112 mg, 1 Hour Postdose at Day 1) was 123 ng/mL, the concentration at 2 h ([1]; 112 mg, Cmpd A 112 mg, 2 Hours Postdose at Day 1) was 142 ng/mL and the concentration at 4 h ([1]; 112 mg, Cmpd A 112 mg, 4 Hours Postdose at Day 1) was 170 ng/mL. The concentration at 6 h ([1]; 112 mg, Cmpd A 112 mg, 6 Hours Postdose at Day 1) was 138 ng/mL, the concentration at 9 h ([1]; 112 mg, Cmpd A 112 mg, 9 Hours Postdose at Day 1, read-out: Plasma Concentration Mean) was 150 ng/mL and the Tmax ([1]; 112 mg, Cmpd A 112 mg, Day 1) was 4.93 h. The AUC(0-inf) ([1]; 112 mg, Cmpd A 112 mg, Day 1, read-out: AUCinf Geo mean) was 1500 ng·h/mL, the AUC(0-inf) ([1]; 112 mg, Cmpd A 112 mg, Day 1, read-out: AUCinf Mean) was 1520 ng·h/mL and the AUC(0-t) ([1]; 112 mg, Cmpd A 112 mg, Day 1, read-out: AUClast Geo mean) was 1500 ng·h/mL. It also gave an AUC(0-t) ([1]; 112 mg, Cmpd A 112 mg, Day 1, read-out: AUClast Mean) of 1520 ng·h/mL, an AUC ([1]; 112 mg, Cmpd A 112 mg, Day 1, read-out: AUCtau Geo mean) of 1500 ng·h/mL and an AUC ([1]; 112 mg, Cmpd A 112 mg, Day 1, read-out: AUCtau Mean) of 1520 ng·h/mL. It also gave a clearance ([1]; 112 mg, Cmpd A 112 mg, Day 1) of 1260 mL/min, a concentration at 9 h ([1]; 112 mg, Cmpd A 112 mg, Day 1, read-out: Ceoi Geo mean) of 156 ng/mL and a concentration at 9 h ([1]; 112 mg, Cmpd A 112 mg, Day 1, read-out: Ceoi Mean) of 158 ng/mL. For the same compound, the Cmax ([1]; 112 mg, Cmpd A 112 mg, Day 1, read-out: Cmax Geo mean) was 171 ng/mL, the Cmax ([1]; 112 mg, Cmpd A 112 mg, Day 1, read-out: Cmax Mean) was 172 ng/mL and the Vd ([1]; 112 mg, Cmpd A 112 mg, Day 1, read-out: Vss Mean) was 121 L. The Vd ([1]; 112 mg, Cmpd A 112 mg, Day 1, read-out: Vz Mean) was 299 L, the AUC(0-t) ([1]; 112 mg, Cmpd A 112 mg, Day 7, read-out: AUClast Geo Mean) was 1520 ng·h/mL and the AUC(0-t) ([1]; 112 mg, Cmpd A 112 mg, Day 7, read-out: AUClast Mean) was 1530 ng·h/mL. It also gave a clearance ([1]; 112 mg, Cmpd A 112 mg, Day 7) of 1240 mL/min, a Cmax ([1]; 112 mg, Cmpd A 112 mg, Day 7, read-out: Cmax Mean) of 173 ng/mL and a Vd ([1]; 112 mg, Cmpd A 112 mg, Day 7, read-out: Vss Mean) of 124 L. For the same compound, the Vd ([1]; 112 mg, Cmpd A 112 mg, Day 7, read-out: Vz Mean) was 338 L, the “Mean change from baseline in KSS” value ([2]; Compound A 44 mg, Day 1) was −0.5 and the “Mean change from baseline in KSS” value ([2]; Compound A 44 mg, Day 7) was 0.0. The “Mean change from baseline in KSS” value ([2]; Compound A 112 mg, Day 1) was −1.0 and the “Mean change from baseline in KSS” value ([2]; Compound A 112 mg, Day 7) was −0.8.
